Patent US20090005369A1, “Oxazolidinone Compounds and Compositions and Methods Related Thereto” (priority 2004, published 2009)
Values after ≈ are worked out from the molar mass of the structure shown. Each block holds one compound with its values, some of them ahead of it.

What was measured:
[1] = system: E. faecalis ATCC 51575 MDR 311; assay: MIC by standard microdilution (NCCLS M7-A5); type: cell-based; details: Enterococcus faecalis, ATCC51575, read-out: In vitro activities against bacteria, MIC
human MAO-A = target: T1, human MAO-A (Homo sapiens, UniProt P21397); assay: In vitro MAO-A enzymatic activity (kynuramine substrate, fluorescence); type: biochemical; details: membranes from SF9 cells, kynuramine 30 μM, read-out: Inhibitory activity of human MAO, Ki
T1 construct: purchased Gentest, BD, USA; host or cells: SF9 insect cells (membranes)
T1 sequence (P21397 1-527): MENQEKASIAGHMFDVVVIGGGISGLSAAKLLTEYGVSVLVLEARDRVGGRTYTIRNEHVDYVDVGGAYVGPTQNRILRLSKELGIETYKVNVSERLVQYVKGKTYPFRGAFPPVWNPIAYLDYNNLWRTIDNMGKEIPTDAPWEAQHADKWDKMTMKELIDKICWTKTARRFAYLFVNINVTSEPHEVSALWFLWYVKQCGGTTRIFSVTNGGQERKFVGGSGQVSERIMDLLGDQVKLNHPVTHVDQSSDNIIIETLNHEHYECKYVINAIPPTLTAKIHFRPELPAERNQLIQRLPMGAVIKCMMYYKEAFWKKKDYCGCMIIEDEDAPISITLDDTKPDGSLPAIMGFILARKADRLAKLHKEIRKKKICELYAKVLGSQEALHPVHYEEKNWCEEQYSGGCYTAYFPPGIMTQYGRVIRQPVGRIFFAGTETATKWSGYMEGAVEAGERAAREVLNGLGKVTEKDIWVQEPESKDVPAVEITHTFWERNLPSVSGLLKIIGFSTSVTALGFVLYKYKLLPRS

human MAO-B = target: T2, human MAO-B (Homo sapiens, UniProt P27338); assay: In vitro MAO-B enzymatic activity (kynuramine substrate, fluorescence); type: biochemical; details: membranes from SF9 cells, kynuramine 30 μM, read-out: Inhibitory activity of human MAO, Ki
T2 construct: purchased Gentest, BD, USA; host or cells: SF9 insect cells (membranes)
T2 sequence (P27338 1-520): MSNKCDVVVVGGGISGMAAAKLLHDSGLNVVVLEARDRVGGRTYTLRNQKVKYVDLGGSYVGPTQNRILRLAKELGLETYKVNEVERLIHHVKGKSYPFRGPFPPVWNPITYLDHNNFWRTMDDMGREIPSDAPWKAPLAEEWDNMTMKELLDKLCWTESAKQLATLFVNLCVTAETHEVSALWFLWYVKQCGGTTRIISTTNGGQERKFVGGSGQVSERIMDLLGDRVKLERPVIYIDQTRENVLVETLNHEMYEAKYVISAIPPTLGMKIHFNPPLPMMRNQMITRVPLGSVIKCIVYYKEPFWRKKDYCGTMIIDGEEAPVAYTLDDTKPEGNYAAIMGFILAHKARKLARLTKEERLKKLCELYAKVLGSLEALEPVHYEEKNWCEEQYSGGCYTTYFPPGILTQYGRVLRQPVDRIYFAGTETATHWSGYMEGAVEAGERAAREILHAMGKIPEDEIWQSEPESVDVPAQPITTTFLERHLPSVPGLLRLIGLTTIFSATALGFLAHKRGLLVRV

[2] = system: E. faecalis ATCC 29212 53; assay: MIC by standard microdilution (NCCLS M7-A5); type: cell-based; details: Enterococcus faecalis, ATCC29212, read-out: In vitro activities against bacteria, MIC
[3] = system: S. aureus ATCC 25923 MS 319; assay: MIC by standard microdilution (NCCLS M7-A5); type: cell-based; details: Staphylococcus aureus, ATCC25923, read-out: In vitro activities against bacteria, MIC
[4] = system: S. epidermidis ATCC 12228 MR 11; assay: microbe, parasite or virus in culture; type: cell-based; details: Staphylococcus epidermidis, ATCC12228, read-out: In vitro activities against bacteria, MIC
[5] = system: S. pneumoniae ATCC 49619 PR 215; assay: MIC by standard microdilution (NCCLS M7-A5); type: cell-based; details: Streptococcus pneumoniae, ATCC49619, read-out: In vitro activities against bacteria, MIC
[6] = system: E. faecium ATCC 51559 MDR 312; assay: MIC by standard microdilution (NCCLS M7-A5); type: cell-based; details: Enterococcus faecium, ATCC51559, read-out: In vitro activities against bacteria, MIC
[7] = system: S. aureus ATCC 43300 MR 214; assay: MIC by standard microdilution (NCCLS M7-A5); type: cell-based; details: Staphylococcus aureus, ATCC43300, read-out: In vitro activities against bacteria, MIC
[8] = system: Moraxella catarrhalis HCl-78 259/339; assay: MIC by standard microdilution (NCCLS M7-A5); type: cell-based; details: HCL78259/339, read-out: In vitro activities against bacteria, MIC
[9] = system: Moxarella, Pasteurella and Bacteroides spp.; details: background statement; cited from earlier work

Structure (SMILES): O=C1O[C@@H](CNC(=S)c2ccco2)CN1c1ccc(N2CCSCC2)c(F)c1 [Example 9, N-[[(5S)-3-[3-fluoro-4-(4-thiomorpholinyl)-phenyl]-2-oxo-5-oxazolidinyl]methyl]furan-2-yl-thioamide]
- MIC [1]: 2 µg/mL (≈ 4.74 µM)
- Ki (human MAO-A): 47.5 µM
- Ki (human MAO-B): 1 µM
- MIC [2]: 2 µg/mL (≈ 4.74 µM)
- MIC [3]: 2 µg/mL (≈ 4.74 µM)
- MIC [4]: 4 µg/mL (≈ 9.49 µM)
- MIC [5]: 4 µg/mL (≈ 9.49 µM)
- MIC [6]: 8 µg/mL (≈ 19 µM)
- MIC [7]: 4 µg/mL (≈ 9.49 µM)

Structure (SMILES): O=C1O[C@@H](CNC(=S)c2ccoc2)CN1c1ccc(N2CCOCC2)c(F)c1 [Example 4, N-[[(5S)-3-[3-fluoro-4-(4-morpholinyl)-phenyl]-2-oxo-5-oxazolidinyl]methyl]furan-3-yl-thioamide]
- MIC [1]: 1 µg/mL (≈ 2.47 µM)
- Ki (human MAO-A): ≥ 250 µM
- Ki (human MAO-B): 2.4 µM
- MIC [2]: 1 µg/mL (≈ 2.47 µM)
- MIC [3]: 1 µg/mL (≈ 2.47 µM)
- MIC [4]: 1 µg/mL (≈ 2.47 µM)
- MIC [5]: 1 µg/mL (≈ 2.47 µM)
- MIC [6]: 2 µg/mL (≈ 4.93 µM)
- MIC [8]: 1 µg/mL (≈ 2.47 µM)
- MIC [7]: 1 µg/mL (≈ 2.47 µM)

Structure (SMILES): CC(=S)N1CCN(c2ccc(N3C[C@H](CNC(=S)c4ccoc4)OC3=O)cc2F)CC1 [Example 7, N-[[(5S)-3-[3-fluoro-4-(4′-thioacetyl-4-piperazinyl)-phenyl]-2-oxo-5-oxazolidinyl]methyl]furan-3-yl-thioamide]
- MIC [1]: 0.06 µg/mL (≈ 0.13 µM)
- Ki (human MAO-A): ≥ 200 µM
- Ki (human MAO-B): 2.8 µM
- MIC [2]: 0.13 µg/mL (≈ 0.281 µM)
- MIC [3]: 0.5 µg/mL (≈ 1.08 µM)
- MIC [4]: 0.5 µg/mL (≈ 1.08 µM)
- MIC [5]: 0.5 µg/mL (≈ 1.08 µM)
- MIC [6]: 0.5 µg/mL (≈ 1.08 µM)
- MIC [8]: 0.25 µg/mL (≈ 0.54 µM)
- MIC [7]: 0.5 µg/mL (≈ 1.08 µM)

Structure (SMILES): O=C1O[C@@H](CNC(=S)c2ccoc2)CN1c1ccc(N2CCSCC2)c(F)c1 [Example 11, N-[[(5S)-3-[3-fluoro-4-(4-thiomorpholinyl)-phenyl]-2-oxo-5-oxazolidinyl]methyl]furan-3-yl-thioamide]
- MIC [1]: 1 µg/mL (≈ 2.37 µM)
- Ki (human MAO-A): ≥ 250 µM
- Ki (human MAO-B): 0.6 µM
- MIC [2]: 1 µg/mL (≈ 2.37 µM)
- MIC [3]: 2 µg/mL (≈ 4.74 µM)
- MIC [4]: 1 µg/mL (≈ 2.37 µM)
- MIC [5]: 1 µg/mL (≈ 2.37 µM)
- MIC [6]: 1 µg/mL (≈ 2.37 µM)
- MIC [8]: 4 µg/mL (≈ 9.49 µM)
- MIC [7]: 1 µg/mL (≈ 2.37 µM)

- MIC [1]: 2 µg/mL (≈ 4.93 µM)
- Ki (human MAO-A): 170 µM
- Ki (human MAO-B): 5.3 µM
- MIC [2]: 2 µg/mL (≈ 4.93 µM)
- MIC [3]: 8 µg/mL (≈ 19.7 µM)
- MIC [5]: 2 µg/mL (≈ 4.93 µM)
- MIC [6]: 1 µg/mL (≈ 2.47 µM)
- MIC [8]: 2 µg/mL (≈ 4.93 µM)
- MIC [7]: 2 µg/mL (≈ 4.93 µM)
Structure (SMILES): O=C1O[C@@H](CNC(=S)c2ccco2)CN1c1ccc(N2CCOCC2)c(F)c1 [Example 2, N-[[(5S)-3-[3-fluoro-4-(4-morpholinyl)-phenyl]-2-oxo-5-oxazolidinyl]methyl]furan-2-yl-thioamide]

Structure (SMILES): CC(=O)NC[C@H]1CN(c2ccc(N3CCOCC3)c(F)c2)C(=O)O1 [Linezolid, N-[[(5S)-3-[3-Fluoro-4-(4-morpholinyl)phenyl]-2-oxo-5-oxazolidinyl]methyl]acetamide, reference compound]
- MIC [1]: 0.5 µg/mL (≈ 1.48 µM)
- Ki (human MAO-A): 7 µM
- Ki (human MAO-B): 0.48 µM
- MIC [2]: 0.5 µg/mL (≈ 1.48 µM)
- MIC [3]: 2 µg/mL (≈ 5.93 µM)
- MIC [4]: 1 µg/mL (≈ 2.96 µM)
- MIC [5]: 2 µg/mL (≈ 5.93 µM)
- MIC [6]: 1 µg/mL (≈ 2.96 µM)
- MIC [8]: 2 µg/mL (≈ 5.93 µM)
- MIC [7]: 1 µg/mL (≈ 2.96 µM)
- MICs [9]: 2 to 8 µg/mL
